From patent publication US20230139883A1, “Peptides for Inducing Differentiation” (Shimadzu Corporation, priority 2020, published 2023)

Tests used:
FGFR1 = experiment: Phage display selection against FGFR1 with Miseq analysis of the bound phages; format: binding
Method: The collected phage library was mixed with 100 nM of FGFR3 solution and allowed to react overnight at 4° C. (Table 5: Panning Round 1). After the reaction, the binding phages were captured by magnetic beads modified with protein A, and washed three times with PBS-T, followed by eluting the bound phages with Gly-HCl (pH 2.0). After neutralizing with 2M Tris, the phages were infected to E. coli. After 4 hours of incubation, helper phages were added, and the E. coli were allowed to produce phages overnight. Next, phage solution was prepared from the culture supernatant. The prepared phage solution was mixed with FGFR3 solution and allowed to react overnight at 4° C. (Table 5: Panning Round 2). After the reaction, the bound phages were eluted. Phage solution prepared in the same way was mixed with FGFR3 solution and allowed to react at 4° C. for 1 hour (Table 5: Panning Round 3). After the reaction, the bound phages were eluted. This operation was repeated two more times, and after Panning Round 5, the bound phages were eluted. Note that as the rounds proceeded, the number of washes with PBS-T was increased. (Table 5). The titer of the Output phage in each round was also determined. The titer of phage was determined from the number of colonies obtained by incubating the E. coli TG1 strain contacted with the phage at 37° C. overnight. As shown in FIG. 3<Input phage (Round 5)>, the eluted phage library after panning was subjected to Human IgG Fc-immobilized plate, and negative selection was performed by collecting unbound phages. The phage library was then acted to FGFR1 prepared to concentrations of 100 nM, 10 nM, and 1 nM. Bound phages were then collected. The phagemid DNA of the collected phages was extracted, samples were prepared according to Illumina's protocol for Miseq, and a comprehensive analysis of the phagemid DNA was performed. Among the sequences obtained, 23 sequences with high incidence rates were selected (Table 6).

FGFR = experiment: Binding to FGFR by surface plasmon resonance (Biacore T200); conditions: SPR, 25° C., FGFR1, FGFR2 or FGFR3 immobilized (FIG. 4)
Excerpt: One clone was selected from the amino acid sequences of the clones obtained above, and the peptide of 100nX (X is 9: SEQ ID NO: 9, the same shall apply hereinafter.) was synthesized. The peptide was synthesized based on the Fmoc solid-phase synthesis method. To measure the binding activity of the peptides, according to the operation manual of the SPR instrument Biacore T200 (GE Healthcare), FGFR1 was immobilized as a ligand to the instrument's sensor chip CMS using the amine coupling method. In addition, to confirm binding to other FGFR species, FGFR2 or FGFR3-immobilized sensor chips were also prepared. Ethanolamine was immobilized as a reference, and the samples were measured as analyte.
All measurements were performed at 25° C. and HBS-EP+ was used as the running buffer. After injecting the running buffer dissolving the peptide into the CMS sensor chip immobilized with various FGFRs (flow rate 30 μl/min, 2 min), the peptide was dissociated by flowing the running buffer for 3 min. The obtained sensorgram was directly curve-fitted with the reaction equation, and the rate constant was calculated by a nonlinear least-squares method. Dissociation constants were calculated by kinetic analysis using Biacore T200 Evaluation Software (GE Healthcare). A 1:1 binding model was used in the analysis.

iPS-hFB [1] = format: cell-based
Method: An attempt to apply 100nX to a differentiation induction system from iPS cells to hepatocytes was made. […] Then, cells were seeded in 6-well plates at 1.5×10^5 cells/well. […] The medium was replaced on Day 3 using the same medium. The medium was removed on Day 5 and RPMI1640 supplemented with B-27 Plus Supplement (Thermo), 20 ng/mL BMP4, and 20 ng/mL bFGF was added at 2 mL/well (conventional protocol; FIG. 14, protocol 1). […] Further, as a control group, RPMI1640 supplemented with B-27 Plus Supplement (Thermo), and 20 ng/mL BMP4 was added at 2 mL/well (conventional protocol; FIG. 14, protocol 2). The medium was replaced on Day 8 using the same medium. In all conditions, the medium was removed on Day 10, and RPMI1640 supplemented with B-27 Plus Supplement (Thermo), and 20 ng/mL HGF was added at 2 mL/well. The medium was replaced on Day 12 and Day 14 using the same medium. The medium was exchanged with HCM BulletKit (Lonza) (containing HBM, Ascorbic Acid, BSA-FAF, Hydrocortisone, Transferin, GA-1000, and Insulin) on Day 15 at 2 mL/well. On Day 17 and Day 18, the medium was exchanged with the same medium.

iPS-hFB [2] = experiment: CYP3A4 activity (luciferin-IPA) of hepatocytes induced to differentiate from iPS cells; format: cell-based; conditions: Day 20, luminescence corrected by protein
Method: Differentiation of iPS cells was induced in the same manner as in Example 13. After the cells were washed with PBS on Day 20, the medium was exchanged with HCM BulletKit (Lonza) containing 3 μM luciferin-IPA at 1 mL/well. After 1 hour of reaction at 37° C., 100 μL of the supernatant was transferred to a 96-well white plate., and Luciferin Detection Reagent was added at 100 μL/well. After 20 minutes of reaction at room temperature, the luminescence was measured. The cells were also crushed and the luminescence value was corrected by quantifying proteins with TaKaRa BCA Protein Assay Kit (Takara Bio).

iPS-hFB [3] = experiment: Differentiation induction of iPS cells into neurons: RT-qPCR of SYN1, MAP2 and Nr2f1; format: cell-based; conditions: for Nr2f1 gene expression level: 0.25 nM peptide on Day 3, Day 35
Method: An attempt to apply 100nX to a differentiation induction system from iPS cells to neurons was made. […] A group in which G-MEM supplemented with 20% KSR (Thermo), 1xNEAA (Thermo), 0.1 mM 2-mercaptoethanol (Wako Pure Chemicals), 1 mM sodium pyruvate (Thermo), 20 μM Y27632 (Wako Pure Chemicals), 3 μM IWR-1-endo (Wako Pure Chemicals), 5 μM SB431542 (Wako Pure Chemicals) was added at 100 μL/well was prepared as a control group (FIG. 14, protocol 2). On Day 6, the entire medium was replaced with the medium of each condition containing no Y27632 (Wako Pure Chemicals). Likewise, the medium was exchanged at Day 10 and Day 14. The medium was removed on Day 18 and the cells added with DMEM/F12 (GlutaMax) (Thermo) containing 1% N-2 Supplement and 1% Chemically Defined Lipid Concentrate were transferred to EZSPHERE (AGC Technoglass) at 2 mL/well. On Day 21, 24, and 27, the medium was replaced with DMEM/F12 (GlutaMax) (Thermo) containing 1% N-2 Supplement. Further, On Day 30, and 33, the medium was replaced with DMEM/F12 (GlutaMax) (Thermo) containing 1% N-2 Supplement and 1% Chemically Defined Lipid Concentrate.

iPS-hFB [4] = experiment: Differentiation induction of iPS cells into cardiomyocytes: observation of beating cell clusters; conditions: Example 3: 0.05 μM peptide + Activin A on Day 1, no bFGF
iPS-hFB [5] = experiment: Differentiation induction of iPS cells into cardiomyocytes: RT-qPCR of cardiomyocyte markers cTNT and Actinin; conditions: Example 4: peptide in combination with bFGF, Day 23; compared to conventional protocol 1
[6] = 0.25 nM peptide, Day 35, compared to control protocol 2 (no bFGF)

CAAELAALEAELAALEGVPGDNNGTRGKLYHLKNKLHRLKNAC [100n9]
1 nM Num. of reads (FGFR1; phage library after panning Round 5, bound to 1 nM FGFR1): 6403
10 nM Num. of reads (FGFR1; phage library after panning Round 5, bound to 10 nM FGFR1): 7169
100 nM Num. of reads (FGFR1; phage library after panning Round 5, bound to 100 nM FGFR1): 6135
1 nM Ranking (FGFR1; rank by number of reads, 1 nM FGFR1): 4
10 nM Ranking (FGFR1; rank by number of reads, 10 nM FGFR1): 3
100 nM Ranking (FGFR1; rank by number of reads, 100 nM FGFR1): 3
binding affinity to the FGFR (FGFR): high binding affinity
promotion of hepatic differentiation (iPS-hFB [1]): as effective as or better than conventional bFGF
CYP3A4 activity (iPS-hFB [2]; compared to control protocol 2 (BMP4)): significantly increased
CYP3A4 activity (iPS-hFB [2]; compared to conventional protocol 1 (BMP4, bFGF)): similar
Nr2f1 gene expression level (iPS-hFB [3]; compared to control protocol 2 (no bFGF)): significantly increased
Nr2f1 gene expression level (iPS-hFB [3]; compared to conventional protocol 1 (bFGF)): similar
MAP2 gene expression level (iPS-hFB [3]; [6]): tended to increase
SYN1 gene expression level (iPS-hFB [3]; [6]): tended to increase
promotion of / contribution to neural differentiation (iPS-hFB [3]; overall, relative to bFGF): as effective as conventional bFGF
day on which beating cell clusters were observed (iPS-hFB [4]): ≥ 16 days
gene expression levels (cTNT, ACTN2) (iPS-hFB [5]): significantly increased
